Measurements taken from ChEMBL document CHEMBL2331241, “Synthesis of C-cinnamoyl glycosides and their inhibitory activity against mammalian carbonic anhydrases” (Bioorg Med Chem, 2013).

Tests used:
Carbonic anhydrase 9 = Carbonic anhydrase 9 (Homo sapiens, UniProt Q16790); test: Inhibition of human carbonic anhydrase 9 preincubated for 15 mins by CO2 hydration stopped-flow assay
Carbonic anhydrase 3 = Carbonic anhydrase 3 (Homo sapiens, UniProt P07451); test: Inhibition of human carbonic anhydrase 3 preincubated for 15 mins by CO2 hydration stopped-flow assay
[1] = molecular target: Carbonic anhydrase 5B, mitochondrial (Homo sapiens, UniProt Q9Y2D0)
Description: Inhibition of human carbonic anhydrase 5B preincubated for 15 mins by CO2 hydration stopped-flow assay

Carbonic anhydrase 6 = Carbonic anhydrase 6 (Homo sapiens, UniProt P23280); test: Inhibition of human carbonic anhydrase 6 preincubated for 15 mins by CO2 hydration stopped-flow assay
Chain of Carbonic anhydrase 6 (P23280 whole entry): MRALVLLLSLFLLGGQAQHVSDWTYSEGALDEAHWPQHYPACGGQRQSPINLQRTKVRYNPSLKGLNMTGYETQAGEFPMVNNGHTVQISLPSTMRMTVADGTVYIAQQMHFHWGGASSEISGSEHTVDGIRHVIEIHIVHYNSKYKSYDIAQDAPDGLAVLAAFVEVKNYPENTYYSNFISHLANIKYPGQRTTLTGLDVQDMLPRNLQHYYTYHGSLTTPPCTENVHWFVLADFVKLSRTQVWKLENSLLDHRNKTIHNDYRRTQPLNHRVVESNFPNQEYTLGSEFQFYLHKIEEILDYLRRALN

Chain of Carbonic anhydrase 5B, mitochondrial (Q9Y2D0 whole entry): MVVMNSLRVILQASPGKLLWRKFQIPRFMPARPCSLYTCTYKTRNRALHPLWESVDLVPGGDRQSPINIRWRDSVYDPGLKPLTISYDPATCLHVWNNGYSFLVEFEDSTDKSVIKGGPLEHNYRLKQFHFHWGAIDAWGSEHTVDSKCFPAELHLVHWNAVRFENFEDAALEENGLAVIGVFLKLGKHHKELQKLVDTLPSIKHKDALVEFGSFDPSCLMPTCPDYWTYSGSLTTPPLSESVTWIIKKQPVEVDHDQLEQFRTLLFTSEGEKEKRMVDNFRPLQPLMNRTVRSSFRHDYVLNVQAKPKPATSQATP
Chain of Carbonic anhydrase 3 (P07451 whole entry): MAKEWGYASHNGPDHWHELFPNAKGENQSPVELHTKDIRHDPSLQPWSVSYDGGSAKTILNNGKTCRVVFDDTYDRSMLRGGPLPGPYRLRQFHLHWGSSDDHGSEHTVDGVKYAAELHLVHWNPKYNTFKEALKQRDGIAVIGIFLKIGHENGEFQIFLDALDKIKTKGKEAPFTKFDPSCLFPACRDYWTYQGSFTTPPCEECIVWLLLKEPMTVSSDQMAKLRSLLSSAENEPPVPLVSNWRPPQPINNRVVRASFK

Compound	Ki (Carbonic anhydrase 9) [µM]	Ki (Carbonic anhydrase 3) [µM]	Ki [1] [µM]	Ki (Carbonic anhydrase 6) [µM]
CC(=O)OC[C@H]1O[C@@H](CC(=O)/C=C/c2cccc(O)c2)[C@H](OC(C)=O)[C@@H](OC(C)=O)[C@@H]1OC(C)=O	5.2	> 100		
O=C(/C=C/c1cccc(O)c1)C[C@@H]1O[C@H](CO)[C@@H](O)[C@H](O)[C@H]1O	4.5	> 100	> 100	
O=C(/C=C/c1cccc(O)c1)C[C@@H]1O[C@H](CO)[C@H](O)[C@H](O)[C@H]1O	9.2	> 100	> 100	
O=C(/C=C/c1ccc(O)cc1)C[C@@H]1O[C@H](CO)[C@H](O)[C@H](O)[C@H]1O	8.2	8.4	> 100	> 100
O=C(/C=C/c1ccc(O)cc1)C[C@@H]1O[C@H](CO)[C@@H](O)[C@H](O)[C@H]1O	8.2	> 100	> 100	> 100

The next lines start with the values.

Ki (Carbonic anhydrase 9) [µM]	Ki (Carbonic anhydrase 3) [µM]	Ki [1] [µM]	Ki (Carbonic anhydrase 6) [µM]	Compound
5.9	> 100			CC(=O)OC[C@H]1O[C@@H](CC(=O)/C=C/c2ccc(O)cc2)[C@H](OC(C)=O)[C@@H](OC(C)=O)[C@@H]1OC(C)=O
3.3	> 100			CC(=O)OC[C@H]1O[C@@H](CC(=O)/C=C/c2cccc(O)c2)[C@H](OC(C)=O)[C@@H](OC(C)=O)[C@H]1OC(C)=O
2.9	> 100			CC(=O)OC[C@H]1O[C@@H](CC(=O)/C=C/c2ccc(O)cc2)[C@H](OC(C)=O)[C@@H](OC(C)=O)[C@H]1OC(C)=O
